In patent US20100210649A1, “PYRIDAZINONES AND FURAN-CONTAINING COMPOUNDS” (Sloan-Kettering Institute for Cancer Research, priority 2006, published 2010):

Legend:
Assay type in all cases: cell-based, human
[1] = system: H1650; assay: Non Small Cell Lung Cancer proliferation assay (Alamar Blue reduction), H1650; conditions: Homo sapiens, NCI-H1650; primary screening; H1650; 10 μM compound in 1% DMSO (v/v); read-out: PRIMARY HTS [%] H1650 (percentage inhibition)
Experimental: (§1) These cells have a doubling time of 1-2 days. All cell types are adherent and grow in colonies. The cells should be kept at a density between 50,000 cells/mL -500,000 cells/mL to provide for optimum growth and adequate nutrition. The cell line should be maintained at 37° C. in a humidified atmosphere with 5% CO2 in a sterile cell culture incubator.
(§2) Non Small Cell Lung Cancer Proliferation Assay.
(§3) High Controls for this assay are made by treating Non Small Cell Lung Cancer cells with 5 ul of 10% DMSO. [Final concentration in this assay is 1% DMSO].
(§4) Important Note: All compounds for testing in this assay should be done at the final concentration of 1% DMSO.
(§5) After addition, the cells are placed in cell culture incubator at 37° C. for 48 hours for complete treatment.
(§6) After drug treatment, cytotoxicity is measured by Alamar Blue reduction.
(§7) The cells are incubated for 48 hours at 37° C. to complete the Alamar Blue reduction.
(§8) The final step in the assay is to measure the amount of Alamar Blue reduction. […] The Alamar Blue fluorescence is measured at an excitation of 530 nm and emission of 590 nm.
(§9) For the NSCLC project, the cell based assay was screened against a small molecule library of approximately 200,000 compounds. The compound library is stored in our automated robotic freezer (Biophile) at −20° C. in 100% DMSO. Compound freeze and thaw cycles are kept to a minimum. […] This assay was performed on a fully automated linear track robotic platform (CRS F3 Robot System, Thermo Electron Corp., Ontario, Canada) utilizing several integrated peripherals for plate handling, liquid dispensing, and readout detection. […] The microplates are then placed at 37° C. for 48 hours to complete treatment of cells with compounds. Next, 5 ul of alamar blue was added using a liquid dispenser (Flexprop Precision Dispenser, Perkin Elmer, Mass., USA) and incubated for 48 hours at 37° C. The alamar blue prompt fluorescence was measured on Victor V (Victor^3 V, Perkin Elmer, Mass., USA) and output data files were loaded into ORIS (Oncology Research Informatics System, MSKCC, NY, USA), a screening data acquisition and analysis platform.
(§10) The dose response studies were done with the following standard procedure. First, the cells were counted and dispensed at 250 cells/well into 384-well microplates with compound. The cells were incubated for 48 hours at 37 C to complete treatment, and then alamar blue was added for an additional 48 hours. Finally, alamar blue reduction was measured and the data was loaded into ORIS, our data screening acquisition platform.

[2] = system: H2030; assay: Non Small Cell Lung Cancer proliferation assay (Alamar Blue reduction), H2030; conditions: Homo sapiens, NCI-H2030; primary screening; H2030; 10 μM compound in 1% DMSO (v/v); read-out: PRIMARY HTS [%] H2030 (percentage inhibition)
Experimental: as §1, §2, §3, §4, §5, §6, §7, §8, §9, §10

[3] = system: H1975; assay: Non Small Cell Lung Cancer proliferation assay (Alamar Blue reduction), H1975; conditions: Homo sapiens, NCI-H1975; primary screening; H1975; 10 μM compound in 1% DMSO (v/v); read-out: PRIMARY HTS [%] H1975 (percentage inhibition)
Experimental: as §1, §2, §3, §4, §5, §6, §7, §8, §9, §10

[4] = system: H3255; assay: Non Small Cell Lung Cancer proliferation assay (Alamar Blue reduction), H3255; conditions: Homo sapiens, NCI-H3255; primary screening; H3255; 10 μM compound in 1% DMSO (v/v); read-out: PRIMARY HTS [%] H3255 (percentage inhibition)
Experimental: as §1, §2, §3, §4, §5, §6, §7, §8, §9, §10

| SMILES | inhibition at 10 µM [1] [%] | inhibition at 10 µM [2] [%] | inhibition at 10 µM [3] [%] | inhibition at 10 µM [4] [%] |
| --- | --- | --- | --- | --- |
| O=C(Nc1c(Cl)cccc1Cl)c1cc2ccccc2o1 [compound 60998] | 10 | 1 | 19 | 1 |
| Cc1ccc(C(=O)Nc2ccc(NC(=O)c3ccco3)c(C)c2)c(Cl)c1 [compound 61302] | 13 | -2 | 16 | 2 |
| O=C(Nc1ccc(Cl)cc1F)c1ccco1 [compound 66598] | 8 | 0 | 8 | 1 |
| Cc1ccc(C(=O)Nc2cc([N+](=O)[O-])ccc2C)o1 [compound 66776] | 13 | -3 | 2 | 2 |
| O=C(Nc1ccc(NC(=O)c2ccc(Cl)cc2Cl)cc1)c1ccco1 [compound 72456] | 12 | 8 | 9 | 7 |
| O=C(Nc1ccc(Cl)cc1O)c1ccco1 [compound 75072] | 13 | 5 | 0 | 1 |
| O=C(Nc1ccc(NC(=O)c2ccco2)cc1)c1ccc(-c2ccccc2)cc1 [compound 76739] | 13 | 3 | -9 | 5 |
| O=C(Nc1ccc(NC(=O)c2ccco2)c(O)c1)c1ccccc1 [compound 76839] | 20 | -6 | 3 | 2 |
| O=C(Nc1ccc(Cl)cc1)c1cc2c(ccc3ccccc32)o1 [compound 77021] | 16 | -1 | -11 | 4 |
| CC1CN(C(=O)c2ccc([N+](=O)[O-])o2)CC(C)O1 (centres unmarked) [compound 77942] | 14 | 6 | -2 | 7 |
| O=C(c1ccc([N+](=O)[O-])o1)N1CCOCC1 [compound 77953] | 12 | -6 | -1 | 0 |
| O=C(Nc1cccc(Cl)c1)c1ccco1 [compound 78107] | 14 | 4 | -14 | 6 |
| O=C(Nc1ccc(Cl)cc1)c1ccco1 [compound 78158] | 20 | 6 | -2 | 4 |
| CCN(Cc1ccccc1)C(=O)c1ccc([N+](=O)[O-])o1 [compound 78535] | 41 | 26 | -2 | 8 |
| Cc1cc([N+](=O)[O-])ccc1NC(=O)c1ccco1 [compound 79434] | 4 | 0 | -7 | 4 |
| Nc1ccc(NC(=O)c2ccco2)c(Cl)c1 [compound 82456] | 6 | -2 | -15 | 2 |
| Cc1cc(Cl)ccc1NC(=O)CN1CCN(C(=O)c2ccco2)CC1 [compound 83809] | 22 | 2 | -10 | 2 |
| Cc1cccc(NC(=O)c2cc3cc([N+](=O)[O-])ccc3o2)c1 [compound 84487] | 27 | 5 | -5 | 3 |
| O=C(Nc1cccc([N+](=O)[O-])c1)c1ccco1 [compound 87246] | 8 | 9 | -3 | 5 |
| O=C(Nc1ccccc1C(=O)NCc1ccc(Cl)cc1)c1ccco1 [compound 88935] | -4 | -1 | -10 | -2 |
